# “Also recorded” adds a separate entry of the source. Like-named read-outs stand apart in the source and are kept apart here.
# Legend:
# [1] = tested on: N. gonorrhoeae; assay: MIC (Table 2B); assay type: cell-based; settings: Neisseria gonorrhoeae, read-out: N. gonorrhoeae MIC
# [2] = tested on: S. aureus; assay: MIC (Table 2B); assay type: cell-based; settings: Staphylococcus aureus, strain not given
# [3] = tested on: 36 mammalian receptors; assay type: binding; settings: 10 μM; every receptor of the panel
# [4] = Single dose PK (IV and PO); assay type: in vivo; settings: mice, 10 mg/kg IV or IP, within 6 h, serum; 10 mg/kg
Compound,"MIC ([1]; Table 2B, strain not given) [µg/mL]",MIC [2] [µg/mL],other results
COc1ccc(Oc2ccc(C(=O)Nc3nnc(-c4ccc(F)cc4)o3)cc2)cc1 [compound 4310],0.05,0.631,–
O=C(Nc1nnc(-c2ccccc2O)o1)c1ccc(Oc2cccc(O)c2)cc1 [compound 6205],0.3,1.71,–
Cc1ccc(Oc2ccc(C(=O)Nc3nnc(-c4ccc(F)cc4)o3)cc2)cc1 [compound 4305],0.048,0.03,–
COc1c(F)cccc1-c1nnc(NC(=O)c2ccc(Oc3cncc(C)n3)cc2)o1 [compound 6983],9.7,21.1,–
O=C(Nc1nnc(-c2ccc(F)cc2)o1)c1ccc(N2CCC2)cc1 [compound 5910],4.23,18.9,–
O=C(Nc1nnc(C2(O)CCCCC2)o1)c1ccc(Oc2ccccc2)nc1 [compound 5793],38,–,–
Cc1cc(C)cc(Oc2ccc(C(=O)Nc3nnc(-c4ccc(F)cc4)o3)cc2)c1 [compound 4308],0.079,0.314,–
O=C(Nc1nnc(C2CCCC2)o1)c1ccc(Oc2ccccc2)nc1 [compound 4470],0.35,4.37,–
Cc1cccc(Oc2ccc(C(=O)Nc3nnc(-c4ccc(F)cc4)o3)cc2)c1 [compound 4306],0.048,0.03,–
O=C(Nc1nnc(C2CCCCC2)o1)c1ccc(OC2CCCCC2)nc1 [compound 4925],0.14,–,–
CC(Oc1ccc(C(=O)Nc2nnc(-c3ccc(F)cc3)o2)cc1)c1ccccc1 (stereo not shown) [compound 4357],0.2,–,–
Cc1cncc(Oc2ccc(C(=O)Nc3nnc(C4CC5CCC4C5)o3)cc2)n1 (stereo not shown) [compound 6282],1.37,6.9,–
"O=C(Nc1nnc(-c2ccc(F)cc2)o1)c1ccc(Oc2ccccc2)nc1 [compound 4237, 2-(6-phenoxynicotinamido)-5-(4-fluorophenyl)-1,3,4-oxadiazole]",–,–,inhibition of the 36 mammalian receptors [3]: < 50%
O=C(Nc1nnc(-c2ccc(F)cc2)o1)c1ccc(OC2CCCC2)cc1 [compound 4293],–,0.28,–
O=C(Nc1nnc(Cc2ccc(F)cc2)o1)c1ccc(Oc2ccccc2)nc1 [compound 4802],1.56,–,–
O=C(Nc1nnc(C2CC3CCC2C3)o1)c1ccc(OC2CCN(CC(F)(F)F)CC2)cc1 (stereo not shown) [compound 6211],1.29,5.8,–
Cc1ccc(C(=O)Nc2nnc(-c3ccc(N4CCC4)cc3)o2)cc1C [3999A],0.087,0.68,–
COc1cccc(Oc2ccc(C(=O)Nc3nnc(-c4ccc(F)cc4)o3)cc2)c1 [compound 4309],0.1,0.63,–
N#Cc1nnc(NC(=O)c2ccc(Oc3ccccc3)nc2)o1 [compound 5834],20.3,–,–

Compound,"MIC ([1]; Table 2B, strain not given) [µg/mL]",MIC [2] [µg/mL],other results
Cc1cccc(-c2nnc(NC(=O)c3ccc(Oc4ccccc4)nc3)o2)c1 [compound 4499],0.18,0.92,–
O=C(Nc1nnc(-c2ccccc2O)o1)c1ccc(Oc2ccccc2)nc1 [5939A],0.82,1.4,–
O=C(Nc1nnc(-c2ccc(F)cc2)o1)c1ccc(S(=O)(=O)c2ccccc2)cc1 [compound 4257],–,2.64,–
O=C(Nc1nnc(C2CC3CCC2C3)o1)c1ccc(Oc2ccccc2)nc1 (stereo not shown) [compound 5246],0.16,4.71,–
O=C(Nc1nnc(C2COc3ccccc3O2)o1)c1ccc(Oc2ccccc2)nc1 (stereo not shown) [compound 4770],3.33,7.36,–
O=C(Nc1nnc(C2CCCCC2)o1)c1ccc(Oc2cccc(O)c2)cc1 [compound 4801],0.19,2.98,–
O=C(Nc1nnc(C2CCCCC2)o1)c1ccc(Oc2ccccc2)nc1 [compound 4780],0.36,3.61,–
O=C(Nc1nnc(-c2cccc(F)c2O)o1)c1ccc(Oc2cccc(O)c2)cc1 [compound 6976],1.91,2.5,–
O=C(Nc1nnc(-c2cccc(O)c2)o1)c1ccc(Oc2cccc(O)c2)cc1 [compound 6236],4.86,19.4,–
O=C(Nc1nnc(-c2cc(F)ccc2O)o1)c1ccc(Oc2cccc(O)c2)cc1 [compound 6977],0.21,0.6,–
O=C(Nc1nnc(-c2ccc(F)cc2)o1)c1ccc2c(c1)ncn2-c1ccccc1 [compound 4311],2.49,–,–
O=C(Nc1nnc(-c2ccc(F)cc2)o1)c1ccc(Oc2cccc(O)c2)cc1 [compound 4304],0.39,3.07,–
CCC(c1ccccc1)c1nnc(NC(=O)c2ccc(Oc3ccccc3)nc2)o1 (stereo not shown) [compound 4804],0.63,–,–
Cc1ccccc1Oc1ccc(C(=O)Nc2nnc(-c3ccc(F)cc3)o2)cc1 [compound 4307],0.09,0.61,–
O=C(Nc1nnc(-c2ccc(F)cc2)o1)c1ccc(Cl)s1 [compound 3653],0.32,–,–
CN(C(=O)c1ccc(Cl)cc1)c1nnc(-c2ccc(F)cc2)o1 [compound 4076],2.07,8.27,–
O=C(Nc1nnc(-c2ccc(F)cc2)o1)c1ccc(Cl)cc1 [KKL-35],–,–,detectable material after dosing (preliminary PK) [4]: no detectable material; also recorded: undetectable
Nc1ccc(C(=O)Nc2nnc(-c3ccc(F)cc3)o2)cc1 [compound 5804],–,–,MIC [1]: 18.8 µg/mL

# Reference: patent publication US20230109833A1, “METABOLICALLY STABLE N-ACYLAMINOOXADIAZOLES USEFUL AS ANTIBACTERIAL AGENTS” (MICROBIOTIX, INC., priority 2017, published 2023)
